Results as given in patent publication US20260007684A1, “AMIDE DERIVATIVES FOR INHIBITING NLRP3 AND USES THEREOF” (Ventus Therapeutics U.S., Inc., priority 2023, published 2026).

target: human NLRP3 (Homo sapiens (Human), UniProt Q96P20); test: Scintillation Proximity (SPA) NLRP3 Assay: displacement of 3H-MCC950; format: binding; details: SPA IC50, displacement of 3H-MCC950
Sequence (Q96P20 whole entry): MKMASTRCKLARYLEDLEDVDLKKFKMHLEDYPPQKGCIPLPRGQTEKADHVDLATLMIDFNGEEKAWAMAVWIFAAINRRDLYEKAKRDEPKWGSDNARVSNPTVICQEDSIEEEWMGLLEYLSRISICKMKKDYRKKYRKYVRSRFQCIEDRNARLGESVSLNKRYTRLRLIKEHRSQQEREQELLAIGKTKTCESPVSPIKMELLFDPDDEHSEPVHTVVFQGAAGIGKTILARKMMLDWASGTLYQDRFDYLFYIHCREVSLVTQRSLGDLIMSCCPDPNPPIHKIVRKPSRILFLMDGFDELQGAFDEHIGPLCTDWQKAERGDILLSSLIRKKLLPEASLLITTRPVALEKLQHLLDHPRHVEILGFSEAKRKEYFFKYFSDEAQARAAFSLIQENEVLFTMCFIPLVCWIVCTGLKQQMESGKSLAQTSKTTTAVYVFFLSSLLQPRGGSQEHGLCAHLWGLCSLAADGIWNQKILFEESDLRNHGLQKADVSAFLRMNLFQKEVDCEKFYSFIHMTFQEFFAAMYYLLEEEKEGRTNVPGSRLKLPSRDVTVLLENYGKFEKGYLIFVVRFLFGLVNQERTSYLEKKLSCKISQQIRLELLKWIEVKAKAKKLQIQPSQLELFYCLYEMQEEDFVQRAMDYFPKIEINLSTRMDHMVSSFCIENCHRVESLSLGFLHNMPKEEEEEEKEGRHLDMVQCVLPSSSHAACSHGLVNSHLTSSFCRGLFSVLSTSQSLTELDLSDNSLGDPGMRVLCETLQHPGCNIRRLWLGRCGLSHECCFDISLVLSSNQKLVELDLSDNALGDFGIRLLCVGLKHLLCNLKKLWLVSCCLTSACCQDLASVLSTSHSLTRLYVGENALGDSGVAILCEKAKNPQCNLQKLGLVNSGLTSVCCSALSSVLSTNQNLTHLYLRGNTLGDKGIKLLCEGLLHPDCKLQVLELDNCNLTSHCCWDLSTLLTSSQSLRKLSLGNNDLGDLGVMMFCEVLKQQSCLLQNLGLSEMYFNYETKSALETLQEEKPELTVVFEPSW

SMILES	IC50
C[C@@H]1C[C@@H]2CC[C@H]([C@H](NC(=O)C3(c4ccc(C(F)(F)F)cc4)CC3)C1)N2c1nnn[nH]1 [104E*, N-((1R,2R,4S,6S)-4-methyl-9-(1H-tetrazol-5-yl)-9-azabicyclo[4.2.1]nonan-2-yl)-1-(4-(trifluoromethyl)phenyl)cyclopropane-1-carboxamide]	10 to 50 µM
O=C(N[C@@H]1CCC[C@H]2CC[C@@H]1N2c1nnn[nH]1)C1(c2ccc(C(F)(F)F)cc2O)CC1 [88C*, N-((1S,2R,6S)-9-(1H-tetrazol-5-yl)-9-azabicyclo[4.2.1]nonan-2-yl)-1-(2-hydroxy-4-(trifluoromethyl)phenyl)cyclopropane-1-carboxamide]	50 to 100 µM
C[C@@H]1C[C@@H]2CC[C@H]([C@@H](NC(=O)C3(c4ccc(C(F)(F)F)cc4)CC3)C1)N2c1nnn[nH]1 [104F*, N-((1R,2S,4S,6S)-4-methyl-9-(1H-tetrazol-5-yl)-9-azabicyclo[4.2.1]nonan-2-yl)-1-(4-(trifluoromethyl)phenyl)cyclopropane-1-carboxamide]	10 to 50 µM

same assay, conditions: displacement of 3H-MCC950; read-out: SPA IC50

IC50	SMILES
10 to 50 µM	C[C@H]1CCN(c2nnn[nH]2)C[C@H](NC(=O)C2(c3ccc(C(F)(F)F)cc3O)CC2)C1 (single isomer, unassigned) [63C*]
1 to 10 µM	C[C@@H]1CCN(c2nnn[nH]2)C[C@@H](NC(=O)C2(c3ccc(Cl)cc3F)CC2)C1 (single isomer, unassigned) [56B*]
1 to 10 µM	C[C@H]1C[C@@H](NC(=O)C2(c3cnc(C(F)(F)F)cc3O)CC2)CN(c2nnn[nH]2)C1 [Compound 26A, 1-(4-hydroxy-6-(trifluoromethyl)pyridin-3-yl)-N-((3R,5S)-5-methyl-1-(1H-tetrazol-5-yl)piperidin-3-yl)cyclopropane-1-carboxamide]
1 to 10 µM	Cc1ccc(C2(C(=O)N[C@H]3C[C@@H](C)CCN(c4nnn[nH]4)C3)CC2)c(O)c1F (single isomer, unassigned) [22D*, 1-(3-fluoro-2-hydroxy-4-methylphenyl)-N-(5-methyl-1-(1H-tetrazol-5-yl)azepan-3-yl)cyclopropane-1-carboxamide]
1 to 10 µM	C[C@@H]1CCN(c2nnn[nH]2)C[C@@H](NC(=O)C2(c3cnc(Cl)cc3O)CC2)C1 (single isomer, unassigned) [99B*]
1 to 10 µM	CC(C)c1ccc(C2(C(=O)N[C@H]3C[C@@H](C)CCN(c4nnn[nH]4)C3)CC2)c(O)c1 (single isomer, unassigned) [27D*, 1-(2-hydroxy-4-isopropylphenyl)-N-(5-methyl-1-(1H-tetrazol-5-yl)azepan-3-yl)cyclopropane-1-carboxamide]
1 to 10 µM	C[C@@H]1CCN(c2nnn[nH]2)C[C@@H](NC(=O)C2(c3ccc(C4CC4)c(F)c3O)CC2)C1 (single isomer, unassigned) [32B*, 1-(4-cyclopropyl-3-fluoro-2-hydroxyphenyl)-N-(5-methyl-1-(1H-tetrazol-5-yl)azepan-3-yl)cyclopropane-1-carboxamide]
> 100 µM	Cc1c(Cl)ccc(C2(C(=O)N[C@@H]3C[C@@H](C)CCN(c4nnn[nH]4)C3)CC2)c1O (single isomer, unassigned) [21C*, 1-(4-chloro-2-hydroxy-3-methylphenyl)-N-(5-methyl-1-(1H-tetrazol-5-yl)azepan-3-yl)cyclopropane-1-carboxamide]
10 to 50 µM	Cc1ccc(C2(C(=O)N[C@@H]3C[C@@H](C)CCN(c4nnn[nH]4)C3)CC2)c(O)c1 (single isomer, unassigned) [67C*]
1 to 10 µM	Cc1ccc(C2(C(=O)N[C@H]3C[C@@H](C)CCN(c4nnn[nH]4)C3)CC2)c(O)c1 (single isomer, unassigned) [67D*]
10 to 50 µM	C[C@@H]1CCN(c2nnn[nH]2)C[C@@H](NC(=O)C2(c3ccc(Cl)nc3O)CC2)C1 (single isomer, unassigned) [100B*]
> 100 µM	C[C@@H]1CCN(c2nnn[nH]2)C[C@@H]1NC(=O)C1(c2ccc(Cl)cc2)CC1 [Compound 49A, 1-(4-chlorophenyl)-N-[(3R,4R)-4-methy1-1-(1H-tetrazol-5-yl)-3-piperidyl]cyclopropanecarboxamide]
> 100 µM	C[C@@H]1CC[C@H](NC(=O)C2(c3ccc(Cl)cc3)CC2)CN(c2nnn[nH]2)C1 (single isomer, unassigned) [36D*, 1-(4-chlorophenyl)-N-(6-methyl-1-(1H-tetrazol-5-yl)azepan-3-yl)cyclopropane-1-carboxamide]
50 to 100 µM	C[C@@H]1CCN(c2nnn[nH]2)C[C@@H](NC(=O)C2(c3ccc(C(F)(F)F)cc3)CC2)C1 (single isomer, unassigned) [61C*]
1 to 10 µM	C[C@@H]1CCN(c2nnn[nH]2)C[C@@H](NC(=O)C2(c3ccc(Cl)c(F)c3O)CC2)C1 (single isomer, unassigned) [18B*, 1-(4-chloro-3-fluoro-2-hydroxyphenyl)-N-(5-methyl-1-(1H-tetrazol-5-yl)azepan-3-yl)cyclopropane-1-carboxamide]
10 to 50 µM	C[C@H]1CCN(c2nnn[nH]2)C[C@@H](NC(=O)C2(c3ccc(Cl)cc3F)CC2)C1 (single isomer, unassigned) [56D*]
> 100 µM	C[C@H]1CCN(c2nnn[nH]2)C[C@H](NC(=O)C2(c3ccc(OC(F)(F)F)cc3)CC2)C1 (single isomer, unassigned) [57C*]
50 to 100 µM	C[C@H]1CCN(c2nnn[nH]2)C[C@H](NC(=O)C2(c3ccc(Cl)c(F)c3F)CC2)C1 (single isomer, unassigned) [4C*, 1-(4-chloro-2,3-difluorophenyl)-N-(5-methyl-1-(1H-tetrazol-5-yl)azepan-3-yl)cyclopropane-1-carboxamide]
1 to 10 µM	C[C@H]1CCN(c2nnn[nH]2)C[C@@H](NC(=O)C2(c3ccc(Br)cc3)CC2)C1 (single isomer, unassigned) [59D*]
10 to 50 µM	C[C@H]1CCN(c2nnn[nH]2)C[C@@H](NC(=O)C2(c3ccc(C4CCC4)cc3)CC2)C1 (single isomer, unassigned) [8D*, 1-(4-cyclobutylphenyl)-N-(5-methyl-1-(1H-tetrazol-5-yl)azepan-3-yl)cyclopropane-1-carboxamide]
10 to 50 µM	C[C@@H]1CCN(c2nnn[nH]2)C[C@@H](NC(=O)C2(c3ccc(Cl)cc3)CC2)C1 (single isomer, unassigned) [12B*, 1-(4-chlorophenyl)-N-(5-methyl-1-(1H-tetrazol-5-yl)azepan-3-yl)cyclopropane-1-carboxamide]
10 to 50 µM	C[C@@H]1CCN(c2nnn[nH]2)C[C@@H](NC(=O)C2(c3ccc(OC(F)(F)F)cc3F)CC2)C1 (single isomer, unassigned) [64B*]
10 to 50 µM	C[C@H]1CCN(c2nnn[nH]2)C[C@@H](NC(=O)C2(c3ccc(C(F)(F)F)c(F)c3)CC2)C1 (single isomer, unassigned) [66D*]

SMILES	IC50
C[C@@H]1CC[C@H](NC(=O)C2(c3ccc(C(F)(F)F)cc3O)CC2)CN(c2nnn[nH]2)C1 [89D*, 1-(2-hydroxy-4-(trifluoromethyl)phenyl)-N-((3S,6R)-6-methyl-1-(1H-tetrazol-5-yl)azepan-3-yl)cyclopropane-1-carboxamide]	1 to 10 µM
Cc1ccc(C2(C(=O)N[C@H]3C[C@@H](C)[C@@H]4CC[C@H]3N4c3nnn[nH]3)CC2)cc1 [87B*, N-((1R,2S,4R,5S)-4-methy1-8-(1H-tetrazol-5-yl)-8-azabicyclo[3.2.1]octan-2-yl)-1-(p-tolyl)cyclopropane-1-carboxamide]	10 to 50 µM
C[C@H]1C[C@H](NC(=O)C2(c3ccc(C4CC4)cc3)CC2)[C@@H]2CC[C@H]1N2c1nnn[nH]1 [81D*]	10 to 50 µM
C[C@H]1C[C@@H](NC(=O)C2(c3ccc(OC(F)F)cc3F)CC2)[C@@H]2CC[C@H]1N2c1nnn[nH]1 (stereo in doubt) [101C*, 1-(4-(difluoromethoxy)-2-fluorophenyl)-N-(4-methyl-8-(1H-tetrazol-5-yl)-8-azabicyclo[3.2.1]octan-2-yl)cyclopropane-1-carboxamide]	> 100 µM
C[C@@H]1C[C@H](NC(=O)C2(c3ccc(C(F)F)cc3)CC2)[C@H]2CC[C@@H]1N2c1nnn[nH]1 [86B*, 1-(4-(difluoromethyl)phenyl)-N-((1R,2S,4R,5S)-4-methyl-8-(1H-tetrazol-5-yl)-8-azabicyclo[3.2.1]octan-2-yl)cyclopropane-1-carboxamide]	10 to 50 µM
C[C@H]1C[C@@H](NC(=O)C2(c3ccc(Cl)cc3)CC2)[C@@H]2CC[C@H]1N2c1nnn[nH]1 [80C*, 1-(4-chlorophenyl)-N-((1S,2R,4S,5R)-4-methyl-8-(1H-tetrazol-5-yl)-8-azabicyclo[3.2.1]octan-2-yl)cyclopropane-1-carboxamide]	> 100 µM
C[C@@H]1C[C@H](NC(=O)C2(c3ccc(C(F)(F)F)cc3F)CC2)[C@H]2CC[C@@H]1N2c1nnn[nH]1 [84B*, 1-(2-fluoro-4-(trifluoromethyl)phenyl)-N-((1R,2S,4R,5S)-4-methyl-8-(1H-tetrazol-5-yl)-8-azabicyclo[3.2.1]octan-2-yl)cyclopropane-1-carboxamide]	10 to 50 µM
C[C@@H]1CC[C@@H](NC(=O)C2(c3ccc(C(F)(F)F)cc3O)CC2)CN(c2nnn[nH]2)C1 [89C*, 1-(2-hydroxy-4-(trifluoromethyl)phenyl)-N-((3R,6R)-6-methyl-1-(1H-tetrazol-5-yl)azepan-3-yl)cyclopropane-1-carboxamide]	1 to 10 µM
C[C@H]1C[C@H](NC(=O)C2(c3ccc(OC(F)F)cc3F)CC2)[C@@H]2CC[C@H]1N2c1nnn[nH]1 (stereo in doubt) [101D*, 1-(4-(difluoromethoxy)-2-fluorophenyl)-N-(4-methyl-8-(1H-tetrazol-5-yl)-8-azabicyclo[3.2.1]octan-2-yl)cyclopropane-1-carboxamide]	10 to 50 µM
C[C@H]1C[C@@H](NC(=O)C2(c3ccc(C4CC4)cc3)CC2)[C@@H]2CC[C@H]1N2c1nnn[nH]1 [81C*, 1-(4-cyclopropylphenyl)-N-((1S,2R,4S,5R)-4-methyl-8-(1H-tetrazol-5-yl)-8-azabicyclo[3.2.1]octan-2-yl)cyclopropane-1-carboxamide]	50 to 100 µM

same assay, conditions: read-out: SPA IC50

IC50	SMILES
> 500 µM	Cn1nnc(-c2cccc(NC(=O)C3(c4ccc(Cl)cc4)CC3)c2)n1 [Comparative Example E2, 1-(4-chlorophenyl)-N-(3-(2-methyl-2H-tetrazol-5-yl)phenyl)cyclopropane-1-carboxamide, reference compound]
